Test results reported in patent US20100056526A1, “HETEROMONOCYCLIC COMPOUND AND USE THEREOF” (Takeda Pharmaceutical Company Limited, priority 2006, published 2010).

Tests used:
human AT1 receptor = biological target: T1, human AT1 receptor (Homo sapiens, UniProt P30556); assay: Binding assay using human AT1 receptor-expressing CHO-K1 cell membrane fraction ([125I]-angiotensin II); conditions: 22.5 pM [125I]-angiotensin II, 9 μg AT1 membrane, 1 hr room temperature; read-out: AT1 receptor binding inhibitory action (IC50 (nM))
T1 construct: expressed in transfected cells; host or cells: CHO-K1
T1 sequence (P30556 1-359): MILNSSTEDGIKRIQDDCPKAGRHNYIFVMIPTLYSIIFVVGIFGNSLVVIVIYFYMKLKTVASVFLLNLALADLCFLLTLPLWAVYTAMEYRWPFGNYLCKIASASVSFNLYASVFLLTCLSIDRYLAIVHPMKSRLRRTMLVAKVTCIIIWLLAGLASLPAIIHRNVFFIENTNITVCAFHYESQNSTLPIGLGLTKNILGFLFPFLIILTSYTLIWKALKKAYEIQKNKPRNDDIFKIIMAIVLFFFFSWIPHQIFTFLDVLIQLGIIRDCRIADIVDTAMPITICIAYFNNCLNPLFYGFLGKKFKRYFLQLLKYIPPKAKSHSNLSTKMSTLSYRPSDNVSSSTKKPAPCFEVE
Procedure, shortened: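 CHO-K1 membranes stably expressing AT1 (9 μg) incubated with 22.5 pM [125I]-angiotensin II and compound in 50 mM Tris pH 7.4, 10 mM MgCl2, with or without 0.3 mg/mL fatty acid-free BSA, 1 hr at room temperature. Bound radioactivity counted after GF/C filtration; nonspecific binding with 1 μM CV-11974; IC50 calculated.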

PPARγ = biological target: T2, PPARγ (Homo sapiens, UniProt P37231); assay: Evaluation of PPARγ activating action (luciferase reporter in PPARγ:RXRα:4ERPP/CHO-K1 cells); format: cell-based; conditions: CHO-K1, 24 h; test compound 10^−6 M; luciferase activity relative to control compound X (1 μM) = 100%, non-administration group = 0%; read-out: PPARγ activating action (activation % (10^−6 M))
T2 construct: expressed in transfected cells; host or cells: CHO-K1
T2 sequence (P37231 1-477 isoform P37231-2): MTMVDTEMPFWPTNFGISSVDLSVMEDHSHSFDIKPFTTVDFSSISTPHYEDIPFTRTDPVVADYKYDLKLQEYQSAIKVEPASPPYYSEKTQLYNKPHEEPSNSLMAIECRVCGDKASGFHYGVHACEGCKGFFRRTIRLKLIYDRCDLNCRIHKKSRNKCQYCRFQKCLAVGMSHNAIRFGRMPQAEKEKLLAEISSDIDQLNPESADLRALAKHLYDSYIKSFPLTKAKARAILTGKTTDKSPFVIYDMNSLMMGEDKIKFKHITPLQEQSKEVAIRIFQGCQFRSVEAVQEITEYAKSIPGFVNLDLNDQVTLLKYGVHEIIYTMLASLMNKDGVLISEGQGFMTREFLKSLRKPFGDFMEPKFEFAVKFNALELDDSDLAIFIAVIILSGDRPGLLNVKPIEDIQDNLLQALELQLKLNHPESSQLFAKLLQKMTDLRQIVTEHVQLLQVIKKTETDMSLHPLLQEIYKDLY
T2 sequence (P19793 1-462 partner): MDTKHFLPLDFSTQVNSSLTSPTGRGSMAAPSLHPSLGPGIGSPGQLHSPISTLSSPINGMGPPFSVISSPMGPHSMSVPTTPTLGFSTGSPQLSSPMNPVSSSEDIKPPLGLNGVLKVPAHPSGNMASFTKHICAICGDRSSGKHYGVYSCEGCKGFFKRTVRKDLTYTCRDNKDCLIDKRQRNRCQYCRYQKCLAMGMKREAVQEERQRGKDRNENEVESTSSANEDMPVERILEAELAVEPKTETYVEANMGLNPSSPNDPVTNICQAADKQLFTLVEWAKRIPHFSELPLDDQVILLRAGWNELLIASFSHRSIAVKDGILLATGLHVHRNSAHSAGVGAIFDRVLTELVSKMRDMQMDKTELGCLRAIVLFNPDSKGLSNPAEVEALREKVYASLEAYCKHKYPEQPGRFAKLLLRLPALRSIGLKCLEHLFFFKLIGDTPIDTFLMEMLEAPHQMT
Procedure, shortened: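 CHO-K1 cells stably carrying PPARγ, RXRα and a 4ERPP luciferase reporter were treated with compound for 1 day at 37 °C in F12 medium with 0.1% fatty acid-free BSA. Luciferase activity was read and scaled between no compound (0%) and reference agonist compound X at 1 μM (100%).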

IC50 (human AT1 receptor): 1.3 nM | activation at 1 µM (PPARγ): 20.3%
Compound: CCCc1nc(CC)c(-c2ccc(OC(C)(C)CO)cc2)c(=O)n1Cc1ccc(-c2ccccc2-c2noc(O)n2)cc1 [Example 512, 6-ethyl-5-[4-(2-hydroxy-1,1-dimethylethoxy)phenyl]-3-{[2′-(5-oxo-4,5-dihydro-1,2,4-oxadiazol-3-yl)biphenyl-4-yl]methyl}-2-propylpyrimidin-4(3H)-one]
